Test results as given in patent US20180207249A1, “METHOD AND VACCINE COMPRISING COPOLYMER 1 FOR TREATMENT OF PSYCHIATRIC DISORDERS” (YEDA RESEARCH AND DEVELOPMENT CO. LTD., priority 2003, published 2018).
Where a name gives a salt, the structure may show the parent alone.

Assays:
[1] = test system: C57BL/6J mice injected with MK-801 or AMPH; assay: Morris water maze (MWM) spatial learning/memory task after psychotomimetic drug; type: in vivo, mouse; details: C57BL/6J mice; MK-801 0.1 mg/kg i.p. or AMPH 2.5 mg/kg i.p.; relative to naive normal mice
Procedure: (§1) (iii) Immunization. Each animal was injected with a total of 100 μg of Cop-1 emulsified in an equal volume of complete Freund's adjuvant (CPA) containing 5 mg/ml of Mycobacteria H37 RA (Difco). The emulsion, in a total volume of 0.1 mL, was injected into the flank 1 week before the mouse was first injected with a psychotomimetic drug. Control mice were injected with an equal volume of phosphate-buffered saline (PBS) emulsified in CFA.
(vi) Drug solutions. Fresh solutions of dizocilpine maleate (MK-801; Sigma-Aidrich) were prepared in physiological saline (0.9% NaCl in sterile distilled water) for each batch of mice. Physiological saline was also used as a vehicle for D-amphetamine sulfate (AMPH: Sigma). MK-801. (0.1 mg/kg) or AMPH (2.5 mg/kg) or sahne was injected i.p., in a total volume of 5 ml per kg of body weight. Mice were injected with MK-801, AMPH, or vehicle 15 min before being subjected to behavioral tests.
(vii) Morris water maze (MWM) behavioral test. Spatial learning/memory was assessed by performance on a hippocampal-dependent visuospatial learning task in the MWM. Mice were given four trials per day, for four consecutive days, to find a hidden platform located 1.5 cm below the water surface in a pool 1.4 m in diameter. Within the testing room only distal visuo-spatial cues were available to the mice for location of the submerged platform. The escape latency, i.e., the time required by the mouse to find and climb onto the platform, was recorded for up to 60 s. Each mouse was allowed to remain on the platform for 30 s, and was then moved from the maze to its home cage. […] The inter-trial interval was 30 s. On day 5, the platform was removed from the pool, and each mouse was tested by a probe trial for 60 s. On days 6-7 the platform was placed at the opposite, location, and the mouse was retrained in four sessions. Data were recorded by using an EthoVision automated tracking system (Noldus Information Technology, Wageningen, The Netherlands). […]

[2] = test system: C57BL/6J mice injected with MK-801 or AMPH; assay: Prepulse inhibition (PPI) of the acoustic startle response after psychotomimetic drug; type: in vivo, mouse; details: vehicle (PBS/CFA)-immunized C57BL/6J mice; MK-801 0.1 mg/kg i.p. or AMPH 2.5 mg/kg i.p.
Procedure: as §1
(vi) Drug solutions. Fresh solutions of dizocilpine maleate (MK-801; Sigma-Aidrich) were prepared in physiological saline (0.9% NaCl in sterile distilled water) for each batch of mice. […]
(viii) Prepulse inhibition (PPT). […] Acoustic PPI was measured by prepuise plus pulse trials consisting of a 2-ms prepuise, 100 ms delay, and then a 40-ms, 120-dB startle pulse. […]
PPI was calculated as a percentage score for each acoustic prepulse trial type: % PPI=100. {[(startle response for prepuise+pulse)/(startle response for pulse-alone)]×100}. The magnitude of the acoustic startle response was calculated as the average response to all of the pulse-alone trials, excluding the first and last blocks of five pulse-alone trials each. […]
(xi) Acoustic startle response (ASR). […] The ASR and pre-pulse inhibition were measured using two ventilated startle chambers (SR-LAB system, San Diego Instruments, San Diego, Calif.). […] These readings (signals) were digitized and stored in a computer. […]

Cop-1-reactive T cells = assay: ELISA of BDNF secreted by Cop-1-reactive T cells; type: cell-based, Lewis rats; details: 48 h stimulation with antigen; for BDNF secreted by Cop-1-reactive T cells (mean): mean of three independent experiments, no antigen 400
Procedure: (iv) T-cell lines. Ten days after Cop-1 immunization, T-cell lines were generated from draining lymph node cells obtained from Lewis rats immunized with Cop-1 emulsified in CFA. The lymph nodes were surgically removed, dissociated, washed, and then activated with the antigen (10 μg/ml) in stimulation medium as previously reported (Kipnis et al., 2000). The T-cells lines were expanded by repeated stimulation and propagation.
(v) Enzyme-linked immunosorbent assay. T cell-reactive Cop-1 cells were grown for 1 week in a propagation medium, then washed with PBS and re-suspended in stimulation medium. The cultured T cells (0.5×10^6 cells/mL) were then incubated, in the presence of irradiated thymocytes (10^7 cells/mL), with concanavalin A (Con A; 1.25 μg/mL), myelin basic protein (MRP; 10 μg/ml), Cop-1 (10 μg/mL), ovalbumin (OVA; 10 μg/mL), or no antigen, in stimulation medium. After 48 h the cells were centrifaged and their supernatants were collected and sampled. Concentrations of brain-derived neurotrophic factor (BDNF) in the samples were determined with a sensitive sandwich ELISA. In brief 96-well flat-bottomed plates were coated with a chicken anti-human BDNF antibody (Promega, Madison, Wis.) in 0.025 M NaHCO3 and 0.025 M Na2CO3 (pH 8.2). Recombinant human BDNF (used as a standard; Research Diagnostics, Flanders, N.J.) was used in serial dilutions in blocking solution containing 3% bovine serum albumin, 0.05% polyoxyethylene-sorbitan monolaurate (Tween-20), and 1% fetal calf serum in PBS (pH 8.2). Bound BDNF was detected by incubating the plates with a mouse anti-human BDNF antibody (Research Diagnostics) and then with peroxidase-conjugated goat anti-mouse IgG (Jackson ImmunoResearch, West Grove, Pa.) in blocking solution. The plates were developed using a 3,3′,5,5′-tetramethylbenzidine liquid substrate system (Sigma-Aldrich). The reaction was stopped by adding 1M H3PO4, and the optical density was determined at 450 nm. Results for each experiment were calculated as the amount of secreted BDNF per 1 mL of sample, after subtraction of background levels of the irradiated thymocytes incubated with the stimulation medium.
Cop-1-reactive T cells were cultured for 48 h with Cop-1, MBP, ovalbumin, or concanavalin A in stimulation medium. T cell supernatants were collected and subjected to sandwich ELISA. […] Values are mean values (pg/ml) +/− SE (from three independent experiments) of the amounts of BDNF secreted by Cop-1-specific T cells in response to stimulation by various antigens.

Molecule | Effect of psychotomimetic drug on MWM spatial learning and memory performance [1] | Effect of psychotomimetic drug on PPI of the ASR [2] | BDNF secreted by Cop-1-reactive T cells (mean) (Cop-1-reactive T cells) | Secretion of BDNF by Cop-1-reactive T cells compared with unstimulated T cells (Cop-1-reactive T cells)
C[C@H](N)Cc1ccccc1 [AMPH, D-amphetamine sulfate] | significantly impaired | significantly disrupted PPI |  | 
C[C@]12N[C@H](Cc3ccccc31)c1ccccc12 [MK-801, (+)dizocilpine maleate] | significantly impaired | significantly disrupted PPI |  | 
concanavalin A [Con A] |  |  | 1100 pg/mL | 
myelin basic protein (protein, UniProt P02686 1-304, looked up) Myelin basic protein: MGNHAGKRELNAEKASTNSETNRGESEKKRNLGELSRTTSEDNEVFGEADANQNNGTSSQDTAVTDSKRTADPKNAWQDAHPADPGSRPHLIRLFSRDAPGREDNTFKDRPSESDELQTIQEDSAATSESLDVMASQKRPSQRHGSKYLATASTMDHARHGFLPRHRDTGILDSIGRFFGGDRGAPKRGSGKDSHHPARTAHYGSLPQKSHGRTQDENPVVHFFKNIVTPRTPPPSQGKGRGLSLSRFSWGAEGQRPGFGYGGRASDYKSAHKGFKGVDAQGTLSKIFKLGGRDSRSGSPMARR |  |  | 1500 pg/mL | significantly increased
ovalbumin (protein, UniProt P01012 2-386, looked up) Ovalbumin: GSIGAASMEFCFDVFKELKVHHANENIFYCPIAIMSALAMVYLGAKDSTRTQINKVVRFDKLPGFGDSIEAQCGTSVNVHSSLRDILNQITKPNDVYSFSLASRLYAEERYPILPEYLQCVKELYRGGLEPINFQTAADQARELINSWVESQTNGIIRNVLQPSSVDSQTAMVLVNAIVFKGLWEKAFKDEDTQAMPFRVTEQESKPVQMMYQIGLFRVASMASEKMKILELPFASGTMSMLVLLPDEVSGLEQLESIINFEKLTEWTSSNVMEERKIKVYLPRMKMEEKYNLTSVLMAMGITDVFSSSANLSGISSAESLKISQAVHAAHAEINEAGREVVGSAEAGVDAASVSEEFRADHPFLFCIKHIATNAVLFFGRCVSP |  |  | 440 pg/mL | 
